Series [1] relates to S. aureus ATCC 29213. Kind of series: Murine corneal infection model. Particulars: topical, four times daily for 3 days; XT17 5 mg/ml, vancomycin 50 mg/ml; vs 5% glucose control. In kind it is in vivo, mice. From the text: (§1) Female C57BL/6 mice (average weight, 20 g) were used for the in vivo efficacy experiments. Mice were housed in a specific pathogen–free facility on a 12-hour light-dark cycle, under the condition with ad libitum access to irradiation sterilized rodent diet and aseptic water. […]. These in vivo experiments were approved by the Experimental Animal Center of South China Agricultural University and conducted in accordance with the policies of the Ministry of Health of China.
(§2) The in vivo efficacy of compound XT17 was investigated in a murine corneal infection model. Before infection, the mice were immunosuppressed with three intraperitoneal injections of cyclophosphamide (100 mg/kg) over 5 days. After anesthesia with 2.5% avertin (500 mg/kg, ip), the left corneas of mice were scratched with 15 μl of S. aureus ATCC 29213 or P. aeruginosa ATCC 9027 (approximately 5 × 10^7 CFU/ml). Following 1 day of infection, the infected mice were randomly assigned into […] (n = 5) and subsequently administered with 0.5% compound XT17, 5% glucose solution, 5% vancomycin, or 0.3% gatifloxacin topically. S. aureus–caused murine corneal infections were treated four times a day for three consecutive days. Only 2 days of treatment were given for P. aeruginosa–caused murine corneal infections. On the first day, the drug was administered every 20 min for 1 hour and then three times at 2-hour intervals on the second day. The mice were given a 5% glucose solution as a negative control in the absence of any antimicrobial agent treatment. The infected corneas were collected after the mice were euthanized, and the number of viable bacteria was counted using MHA plates.

The subject of series [2] is S. aureus ATCC 29213. Briefly: Time-kill kinetic assay. The format is cell-based, Staphylococcus aureus. The settings on record: 10× MIC, 24 hours. On the procedure: The bacterial cultures were standardized to obtain an initial density that ranged from 10^5 to 10^6 cells/ml. The cultures were incubated in a shaking bath at 37°C. Viable counts were determined at 0-, 0.5-, 1.0-, 2.0-, 4.0-, 8.0-, and 24-hour intervals by spotting 10-μl aliquots of serially 10-fold diluted cultures onto Mueller-Hinton agar (MHA) plates. […] All measurements were repeated three times with duplicates each time.

The test system of the next series is E. coli ATCC 25922. Kind of series: MIC, broth microdilution. In kind it is cell-based, Escherichia coli. Particulars: Escherichia coli, ATCC25922, 24 h, read-out: MIC90 E. coli ATCC 25922. The method, then: (§3) MIC was determined using the broth microdilution method in accordance with Clinical and Laboratory Standards Institute guidelines. All compounds were dissolved in dimethyl sulfoxide (DMSO; final DMSO concentration of less than 0.5%) and sterile double-distilled water and then diluted with Mueller-Hinton broth (MHB). Each compound’s stock solution was serially twofold diluted, resulting in concentrations ranging from 0.39 to 100 μg/ml, and thereafter added to sterile 96-well plates. All bacterial cell suspensions were adjusted in MHB to attain a starting inoculum of 1 × 10^6 cells/ml. A total of 100 μl volume of the bacterial suspension was then added to each well. Following a 24-hour incubation at 37°C, the optical density at 600 nm (OD600) was confirmed by measuring absorbance at 600 nm with a BioTek microplate reader. […] All measurements were repeated three times with duplicates each time.

The subject of series [3] is S. aureus ATCC 29213. Briefly: MIC, broth microdilution. The format is cell-based. Particulars: Staphylococcus aureus, ATCC29213, 24 h, read-out: MIC90 S. aureus ATCC 29213. The method, then: as §3
Another series concerns MRSA NCTC 10442. Briefly: MIC, broth microdilution. The format is cell-based. The settings on record: Staphylococcus aureus, 24 h, read-out: MIC90 MRSA NCTC 10442. The method, then: as §3
The next series deals with MRSA N315. Briefly: MIC, broth microdilution. The format is cell-based. The settings on record: Staphylococcus aureus, 24 h, read-out: MIC90 MRSA N315. The method, then:
as §3

Another series concerns rabbit erythrocytes. Kind of series: Hemolysis assay. Particulars: concentration causing 50% hemolysis of red blood cells; 1 hour, 37°C. In kind it is cell-based. On the procedure: The hemolytic activity of antimicrobial agents was investigated as previously described ([70]). Briefly, the rabbit erythrocytes were centrifuged at 2500 rpm for 3 min before being washed twice with sterile phosphate-buffered saline (PBS) (pH 7.4). Subsequently, the erythrocytes were diluted with PBS to a final concentration of 8% (v/v). The DMSO-dissolved compounds were twofold serially diluted in PBS to achieve a final concentration with DMSO less than 0.5%. […] Sterile PBS and 0.2% Triton X-100 were used as negative and positive controls, respectively. After 1 hour of incubation at 37°C, the tested samples were centrifuged at 2500 rpm for 5 min, and aliquots of the supernatant were added to 96-well microplates. The hemoglobin release was determined by measuring the absorbance at 576 nm using a BioTek multimode reader. The percentage of hemolytic activity was calculated using the following formula: Hemolysis rate (%) = [OD576 (compound) − OD576 (PBS)]/[OD576 (Triton X-100) − OD576 (PBS)] × 100. All measurements were repeated three times with duplicates each time.

Another series deals with P. aeruginosa ATCC 9027. Kind of series: Murine corneal infection model. The format is in vivo, mice. The settings on record: topical, 2 days; XT17 5 mg/ml, gatifloxacin 3 mg/ml; vs 5% glucose control.
Excerpt: as §1, §2

Values after ≈ are worked out from the molar mass of the structure shown. A value given as a limit tells only on which side of the number the result lay.

Consider `CN[C@H](CC(C)C)C(=O)N[C@H]1C(=O)N[C@@H](CC(N)=O)C(=O)N[C@H]2C(=O)N[C@H]3C(=O)N[C@H](C(=O)N[C@H](C(=O)O)c4cc(O)cc(O)c4-c4cc3ccc4O)[C@H](O)c3ccc(c(Cl)c3)Oc3cc2cc(c3O[C@@H]2O[C@H](CO)[C@@H](O)[C@H](O)[C@H]2O[C@H]2C[C@](C)(N)[C@H](O)[C@H](C)O2)Oc2ccc(cc2Cl)[C@H]1O` [VAN, vancomycin, reference compound], for which, in the series with S. aureus ATCC 29213 [1], the “log reduction in viable bacterial colonies in the infected corneas” value was 5.57 log. Moreover, the “log decrease in bacterial load” value with S. aureus ATCC 29213 [2] came to 4.56 log. Moreover, the MIC90 was more than 50 mg/L with E. coli ATCC 25922, 0.78 mg/L (≈ 0.538 µM) in the series with S. aureus ATCC 29213 [3], 1.56 mg/L (≈ 1.08 µM) in the series with MRSA NCTC 10442 and 1.56 mg/L (≈ 1.08 µM) in the series with MRSA N315. For the same compound, the HC50 with rabbit erythrocytes was more than 200 µg/mL.

In the case of `COc1c(N2CCNC(C)C2)c(F)cc2c(=O)c(C(=O)O)cn(C3CC3)c12` (centres unmarked) [gatifloxacin, reference compound], the “log reduction in viable bacterial colonies in the infected corneas” value in the series on P. aeruginosa ATCC 9027 worked out at 3.08 log.

Source of the values: publication PMC11881906, “Development of xanthone derivatives as effective broad-spectrum antimicrobials: Disrupting cell wall and inhibiting DNA synthesis” (Science Advances, 2025).
